# In PubChem BioAssay AID1388 (Sanford-Burnham Center for Chemical Genomics, 2008):
# Calls of active or inactive are those of the source.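 The calls were made as follows: active = no detectable phosphorylated eIF2 alpha band on the immunoblot of stressed cell lysates; inactive = phospho eIF2 alpha band still visible on the blot.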
# Target: Eukaryotic translation initiation factor 2 subunit 1 (Rattus norvegicus) (UniProt P68101)
# Assay: inhibition of eIF2α phosphorylation under ER stress, late-stage follow-up, mechanism study for ER stress cell death project, cell-based, thapsigargin, Western blot (AID 1388)
# Conditions: CSM14.1 cells, phospho-eIF2a Western blot
# Sequence of Eukaryotic translation initiation factor 2 subunit 1 (Rattus norvegicus) (P68101 whole entry, looked up): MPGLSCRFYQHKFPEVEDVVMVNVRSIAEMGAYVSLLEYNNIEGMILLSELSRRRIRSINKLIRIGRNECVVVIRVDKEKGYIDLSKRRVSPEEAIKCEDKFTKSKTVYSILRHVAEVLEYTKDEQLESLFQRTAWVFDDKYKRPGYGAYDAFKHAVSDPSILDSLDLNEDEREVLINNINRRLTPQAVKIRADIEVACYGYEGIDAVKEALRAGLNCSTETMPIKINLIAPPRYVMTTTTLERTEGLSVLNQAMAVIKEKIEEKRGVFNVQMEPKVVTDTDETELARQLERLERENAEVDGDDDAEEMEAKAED
row,SMILES,outcome
1,CCOc1cc(C2Nc3ccccc3NC3=C2C(=O)CC(c2ccc(OC)cc2)C3)cc(Cl)c1O (stereo unspecified),inactive
2,COc1ccc(C2CC(=O)C3=C(C2)Nc2ccccc2NC3c2cccc(Br)c2)cc1OC (stereo unspecified),inactive
3,O=C1CC(c2ccccc2)CC2=C1C(c1c(F)cccc1Cl)Nc1ccccc1N2 (stereo unspecified),inactive
4,COc1ccc(C2CC(=O)C3=C(C2)Nc2ccccc2NC3c2cccc(C(F)(F)F)c2)cc1OC (stereo unspecified),inactive
5,CSc1ccc(C2Nc3ccccc3NC3=C2C(=O)CC(c2ccccc2)C3)cc1 (stereo unspecified),inactive
6,COc1ccc(C2CC(=O)C3=C(C2)Nc2ccccc2NC3c2ccccc2C(F)(F)F)cc1OC (stereo unspecified),inactive
7,COc1ccc(C2CC(=O)C3=C(C2)Nc2ccccc2NC3c2cc(C)ccc2C)cc1 (stereo unspecified),inactive
8,CCOc1cccc(C2Nc3ccccc3NC3=C2C(=O)CC(c2ccc(OC)cc2)C3)c1 (stereo unspecified),inactive
9,CCCOc1ccc(C2Nc3ccccc3NC3=C2C(=O)CC(c2ccc(OC)c(OC)c2)C3)cc1 (stereo unspecified),inactive
10,CC1(C)CC(=O)C2=C(C1)Nc1ccccc1NC2c1ccc(-c2ccccc2)cc1 (stereo unspecified),inactive
11,COc1ccc(C2CC(=O)C3=C(C2)Nc2ccccc2NC3c2cccc(Oc3ccccc3)c2)cc1OC (stereo unspecified),inactive
